Measurements from patent publication US20060177444A1, “Concomitant drug as therapeutic agent for inflammatory bowel disease” (priority 2003, published 2006).

System: male Balb/c mice
Experiment: TNBS-induced experimental colitis in mice, lesion length of the colon
Format: in vivo
Conditions: for improvement of colitis compared with combination administration, in words: single administration at a dose higher than that in the combination administration
Description: A total of 0.08 ml of a 1:1 (v/v) mixture of 10% picrylsulfonic acid (TNBS) solution and ethanol was administered to anesthetized male Balb/c mice (Charles River Japan, Inc., Yokohama, Japan) according to previous reports (J Exp Med 2001; 193: p 827-38, J Exp Med 2001; 193: p 25-34) to thereby induce experimental colitis. The colon (large intestine) was sampled two days later, and the length of a flare site accompanied with ulcer or hyperplasia near to the lumen was measured and was defined as the lesion length. The inhibition (%) was calculated from the average lesion length of a treated group, compared with the average lesion length of a control group. The test compound suspended in a 0.5% solution of methylcellulose was orally administered to the mice via sonde once a day from two days before the beginning of colitis induction.

Structure (SMILES)	Inhibition (%) of average lesion length (Compound 1 0.3 mg/kg/day, oral, once a day) [%]	Inhibition (%) of average lesion length (Compound 1 1 mg/kg/day, oral, once a day) [%]	Inhibition (%) of average lesion length (Compound 1 3 mg/kg/day, oral, once a day (Table 2)) [%]	Inhibition (%) of average lesion length (Compound 1 10 mg/kg/day, oral, once a day) [%]	Inhibiton (%) of average lesion length (Table 5: Compound 1 3 mg/kg/day alone) [%]	improvement of colitis, in words (single administration)	improvement of colitis compared with combination administration, in words	Inhibition (%) of average lesion length (Rosiglitazone 1 mg/kg/day, oral, once a day, single administration) [%]	Inhibition (%) of average lesion length (Rosiglitazone 10 mg/kg/day, oral, once a day, single administration) [%]	Inhibiton (%) of average lesion length (Sulfasalazine 100 mg/kg/day, oral, single administration (Table 3)) [%]	Inhibiton (%) of average lesion length (Sulfasalazine 300 mg/kg/day, oral, single administration) [%]	Inhibiton (%) of average lesion length (Table 5: Sulfasalazine 100 mg/kg/day alone) [%]
CC(C)O[C@@H](Cc1cccc(CNC(=O)OCc2cccc(OC(F)(F)F)c2)c1)C(=O)O [Compound 1, 3-(3-{[3-trifluoromethoxybenzyloxycarbonylamino]methyl}phenyl)-2(S)-isopropoxypropanoic acid]	8	21	38	34	29	partially improves colitis	improves colitis less effectively	–	–	–	–	–
CN(CCOc1ccc(CC2SC(=O)NC2=O)cc1)c1ccccn1 (centres unmarked) [Rosiglitazone, rosiglitazone]	–	–	–	–	–	–	–	23	37	–	–	–
O=C(O)c1cc(N=Nc2ccc(S(=O)(=O)Nc3ccccn3)cc2)ccc1O [Sulfasalazine, 2-hydroxy-5-[[4-[(2-pyridinylamino)sulfonyl]phenyl]-azo]benzoic acid]	–	–	–	–	–	partially improves colitis	improves colitis less effectively	–	–	40	35	43
